We go through eight molecules from patent publication US20240270762A1, “PENICILLIN-BINDING PROTEIN INHIBITORS” (priority 2021, published 2024).

In assay [1] the target is T1, PBP3 from Acinetobacter baumannii (ATCC 19606) (Acinetobacter baumannii, UniProt A0ABX6CK25).
T1 sequence (A0ABX6CK25 64-610): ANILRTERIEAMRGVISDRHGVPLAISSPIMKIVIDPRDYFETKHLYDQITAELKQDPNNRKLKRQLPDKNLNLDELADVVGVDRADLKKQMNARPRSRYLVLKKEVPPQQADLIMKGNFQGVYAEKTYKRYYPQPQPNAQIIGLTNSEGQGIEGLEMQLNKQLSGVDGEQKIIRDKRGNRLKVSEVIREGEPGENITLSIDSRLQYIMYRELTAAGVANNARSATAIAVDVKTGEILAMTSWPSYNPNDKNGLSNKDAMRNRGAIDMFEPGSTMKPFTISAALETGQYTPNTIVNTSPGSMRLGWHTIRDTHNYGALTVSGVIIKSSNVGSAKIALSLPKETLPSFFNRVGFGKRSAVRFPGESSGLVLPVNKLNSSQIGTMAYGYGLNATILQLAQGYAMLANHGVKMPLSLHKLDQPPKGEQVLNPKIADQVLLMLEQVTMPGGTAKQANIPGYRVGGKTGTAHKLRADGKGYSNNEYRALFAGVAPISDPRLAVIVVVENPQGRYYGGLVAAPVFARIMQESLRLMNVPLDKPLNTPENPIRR
Put plainly: Bocillin-FL fluorescence polarization competition binding, A. baumannii PBP3. Conditions: fluorescence polarization competition binding assay using Bocillin-FL; read-out: A. baumannii PBP3 Potency. In a few lines:
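Purified PBP was preincubated with inhibitor (E. coli PBP3 1.5 μM, 30 min; P. aeruginosa PBP3 0.75 μM, A. baumannii PBP3 0.2 μM and PBP1a 1 μM, 15 min), then Bocillin-FL (0.1 μM; 0.05 μM for PBP1a) added and FP read up to 60 min. EC50 = 50% loss of bound probe.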
Background: In fluorescence polarisation assays a small probe gives low polarisation when free and higher when bound to something large.

In another assay the test system is P. aeruginosa ATCC 27853. In words: microbe, parasite or virus in culture. The assay is classed as cell-based. Conditions: Pseudomonas aeruginosa, ATCC27853, read-out: Minimum inhibitory concentration, P. aeruginosa ATCC 27853.
In the next assay the test system is P. aeruginosa CDC-0095. In words: microbe, parasite or virus in culture. Conditions: Pseudomonas aeruginosa, CDC0095, read-out: Minimum inhibitory concentration, P. aeruginosa CDC-0095. The assay is classed as cell-based.
A further assay concerns A. baumannii 1258916. In words: microbe, parasite or virus in culture. The assay is classed as cell-based, Acinetobacter baumannii. Conditions: Acinetobacter baumannii, 1258916, read-out: MIC, A. baumannii 1258916.
In a further assay the test system is A. baumannii CDC-0033. In words: microbe, parasite or virus in culture. The class given is cell-based. The conditions noted are these: Acinetobacter baumannii, CDC0033, read-out: MIC, A. baumannii CDC-0033.
The subject of the next assay is A. baumannii CDC-0036. Put plainly: microbe, parasite or virus in culture. Conditions: Acinetobacter baumannii, CDC0036, read-out: MIC, A. baumannii CDC-0036. The class given is cell-based.
In assay [2] the test system is B. thailandensis ATCC 700388. In words: microbe, parasite or virus in culture. The assay is classed as cell-based. The conditions noted are these: Burkholderia thailandensis, ATCC700388, read-out: Minimum inhibitory concentration (MIC), B. thailandensis ATCC 700388.
A further assay has as its system P. aeruginosa CDC-0110. In words: microbe, parasite or virus in culture. Conditions: Pseudomonas aeruginosa, CDC0110, read-out: Minimum inhibitory concentration, P. aeruginosa CDC-0110. The assay is classed as cell-based.
Another assay relates to N. gonorrhoeae MS11. Put plainly: Liquid broth MIC in Fastidious broth. The conditions noted are these: Neisseria gonorrhoeae, MS11, read-out: Minimum Inhibitory Concentration, MS11.
In a further assay the test system is N. gonorrhoeae WHO G. Put plainly: Liquid broth MIC in Fastidious broth. Conditions: Neisseria gonorrhoeae, read-out: Minimum Inhibitory Concentration, WHO G.
A further assay relates to N. gonorrhoeae WHO Q. Put plainly: Liquid broth MIC in Fastidious broth. The conditions noted are these: Neisseria gonorrhoeae, read-out: Minimum Inhibitory Concentration, WHO Q.

≈ marks a conversion by molar mass, not a printed value.

As for `O=C(NCCN1CCN(C(=O)NC(C(=O)N[C@H]2Cc3ccc(F)c(C(=O)O)c3OB2O)c2cc(F)c(O)c(O)c2Cl)C1=O)Nc1cccnc1` (stereo partly drawn) [Example 251, (3R)-3-(2-(2-chloro-5-fluoro-3,4-dihydroxyphenyl)-2-(2-oxo-3-(2-(3-(pyridin-3-yl)ureido)ethyl)imidazolidine-1-carboxamido)acetamido)-7-fluoro-2-hydroxy-3,4-dihydro-2H-benzo[e][1,2]oxaborinine-8-carboxylic acid], the IC50 in assay [1] was under 10 µM. Also, the MIC with P. aeruginosa ATCC 27853 is under 1 µg/mL; with P. aeruginosa CDC-0095, 8 to 16 µg/mL (≈ 11.1 to 22.3 µM); in the assay with A. baumannii 1258916, under 1 µg/mL; in the assay with A. baumannii CDC-0033, 2 to 4 µg/mL (≈ 2.79 to 5.57 µM); with A. baumannii CDC-0036 it was 2 to 4 µg/mL (≈ 2.79 to 5.57 µM); in [2], under 1 µg/mL. The MIC was under 1 µg/mL with P. aeruginosa CDC-0110, 16 to 32 µg/mL (≈ 22.3 to 44.6 µM) in the assay on N. gonorrhoeae MS11, 16 to 32 µg/mL (≈ 22.3 to 44.6 µM) in the assay with N. gonorrhoeae WHO G and over 64 µg/mL in the assay on N. gonorrhoeae WHO Q.
As for `O=C(NCCCN1CCN(C(=O)N[C@H](C(=O)N[C@H]2Cc3ccc(F)c(C(=O)O)c3OB2O)c2cc(F)c(O)c(O)c2Cl)C1=O)c1ccccc1` [Example 252, (R)-3-((S)-2-(3-(3-benzamidopropyl)-2-oxoimidazolidine-1-carboxamido)-2-(2-chloro-5-fluoro-3,4-dihydroxyphenyl)acetamido)-7-fluoro-2-hydroxy-3,4-dihydro-2H-benzo[e][1,2]oxaborinine-8-carboxylic acid], the IC50 in assay [1] lay in the range of 50 to 250 µM. In addition, the MIC (in the assay with P. aeruginosa ATCC 27853; with P. aeruginosa CDC-0095; in the assay with A. baumannii 1258916; in the assay with A. baumannii CDC-0033; in the assay with A. baumannii CDC-0036; in assay [2]) was over 128 µg/mL each time. For the same molecule, the MIC was over 128 µg/mL with P. aeruginosa CDC-0110, over 64 µg/mL in the assay with N. gonorrhoeae MS11, over 64 µg/mL with N. gonorrhoeae WHO G and over 64 µg/mL in the assay on N. gonorrhoeae WHO Q.
As for `O=C(NCCCN1CCN(C(=O)N[C@@H](C(=O)N[C@H]2Cc3ccc(F)c(C(=O)O)c3OB2O)c2cc(F)c(O)c(O)c2Cl)C1=O)c1ccccc1` [Example 253, (R)-3-((R)-2-(3-(3-benzamidopropyl)-2-oxoimidazolidine-1-carboxamido)-2-(2-chloro-5-fluoro-3,4-dihydroxyphenyl)acetamido)-7-fluoro-2-hydroxy-3,4-dihydro-2H-benzo[e][1,2]oxaborinine-8-carboxylic acid], the IC50 in assay [1] was under 10 µM. For the same molecule, the MIC with P. aeruginosa ATCC 27853 was 2 to 4 µg/mL (≈ 2.79 to 5.59 µM); in the assay with P. aeruginosa CDC-0095 it was 2 to 4 µg/mL (≈ 2.79 to 5.59 µM); in the assay with A. baumannii 1258916, under 1 µg/mL; in the assay with A. baumannii CDC-0033 it was under 1 µg/mL; in the assay on A. baumannii CDC-0036 it was under 1 µg/mL; in [2], 2 to 4 µg/mL (≈ 2.79 to 5.59 µM). Besides, the MIC with P. aeruginosa CDC-0110 was in the range of 2 to 4 µg/mL (≈ 2.79 to 5.59 µM); in the assay with N. gonorrhoeae MS11, 16 to 32 µg/mL (≈ 22.4 to 44.7 µM); with N. gonorrhoeae WHO G, 16 to 32 µg/mL (≈ 22.4 to 44.7 µM); in the assay on N. gonorrhoeae WHO Q it was 16 to 32 µg/mL (≈ 22.4 to 44.7 µM).
Take `O=C(NCCCN1CCN(C(=O)N[C@H](C(=O)N[C@H]2Cc3ccc(F)c(C(=O)O)c3OB2O)c2cc(F)c(O)c(O)c2Cl)C1=O)c1cccc(O)c1` [Example 254, (R)-3-((S)-2-(2-chloro-5-fluoro-3,4-dihydroxyphenyl)-2-(3-(3-(3-hydroxybenzamido)propyl)-2-oxoimidazolidine-1-carboxamido)acetamido)-7-fluoro-2-hydroxy-3,4-dihydro-2H-benzo[e][1,2]oxaborinine-8-carboxylic acid]: the IC50 in assay [1] fell in the range of 10 to 50 µM. Further, the MIC in the assay on P. aeruginosa ATCC 27853 is over 128 µg/mL; in the assay with P. aeruginosa CDC-0095, over 128 µg/mL; in the assay on A. baumannii 1258916 it was over 128 µg/mL; in the assay with A. baumannii CDC-0033, 32 to 64 µg/mL (≈ 43.7 to 87.4 µM); in the assay with A. baumannii CDC-0036 it was over 128 µg/mL; in assay [2], over 128 µg/mL. In addition, the MIC with P. aeruginosa CDC-0110 was over 128 µg/mL; with N. gonorrhoeae MS11 it was over 64 µg/mL; with N. gonorrhoeae WHO G, over 64 µg/mL; in the assay with N. gonorrhoeae WHO Q, over 64 µg/mL.
For `O=C(NCCCN1CCN(C(=O)N[C@@H](C(=O)N[C@H]2Cc3ccc(F)c(C(=O)O)c3OB2O)c2cc(F)c(O)c(O)c2Cl)C1=O)c1cccc(O)c1` [Example 255, (R)-3-((R)-2-(2-chloro-5-fluoro-3,4-dihydroxyphenyl)-2-(3-(3-(3-hydroxybenzamido)propyl)-2-oxoimidazolidine-1-carboxamido)acetamido)-7-fluoro-2-hydroxy-3,4-dihydro-2H-benzo[e][1,2]oxaborinine-8-carboxylic acid], the IC50 in [1] is under 10 µM. The MIC was under 1 µg/mL in the assay on P. aeruginosa ATCC 27853; 2 to 4 µg/mL (≈ 2.73 to 5.47 µM) with P. aeruginosa CDC-0095; under 1 µg/mL in the assay with A. baumannii 1258916; 2 to 4 µg/mL (≈ 2.73 to 5.47 µM) with A. baumannii CDC-0033; under 1 µg/mL in the assay with A. baumannii CDC-0036; under 1 µg/mL in assay [2]. In addition, the MIC in the assay with P. aeruginosa CDC-0110 is under 1 µg/mL; in the assay on N. gonorrhoeae MS11, 16 to 32 µg/mL (≈ 21.9 to 43.7 µM); in the assay on N. gonorrhoeae WHO G, 4 to 8 µg/mL (≈ 5.47 to 10.9 µM); with N. gonorrhoeae WHO Q, 16 to 32 µg/mL (≈ 21.9 to 43.7 µM).
As to `O=C(NCCCN1CCN(C(=O)NC(C(=O)N[C@H]2Cc3ccc(F)c(C(=O)O)c3OB2O)c2cc(F)c(O)c(O)c2Cl)C1=O)c1ccncc1` (stereo partly drawn) [Example 256, (3R)-3-(2-(2-chloro-5-fluoro-3,4-dihydroxyphenyl)-2-(3-(3-(isonicotinamido)propyl)-2-oxoimidazolidine-1-carboxamido)acetamido)-7-fluoro-2-hydroxy-3,4-dihydro-2H-benzo[e][1,2]oxaborinine-8-carboxylic acid], the IC50 in assay [1] was under 10 µM. In addition, the MIC is 2 to 4 µg/mL (≈ 2.79 to 5.58 µM) in the assay with P. aeruginosa ATCC 27853; 2 to 4 µg/mL (≈ 2.79 to 5.58 µM) in the assay on P. aeruginosa CDC-0095; under 1 µg/mL in the assay on A. baumannii 1258916; 2 to 4 µg/mL (≈ 2.79 to 5.58 µM) in the assay on A. baumannii CDC-0033; 2 to 4 µg/mL (≈ 2.79 to 5.58 µM) in the assay with A. baumannii CDC-0036; under 1 µg/mL in [2]. Besides, the MIC is 2 to 4 µg/mL (≈ 2.79 to 5.58 µM) in the assay with P. aeruginosa CDC-0110, over 64 µg/mL in the assay on N. gonorrhoeae MS11, 16 to 32 µg/mL (≈ 22.3 to 44.6 µM) with N. gonorrhoeae WHO G and over 64 µg/mL with N. gonorrhoeae WHO Q.
Turning to `O=C(NCCCN1CCN(C(=O)NC(C(=O)N[C@H]2Cc3ccc(F)c(C(=O)O)c3OB2O)c2cc(F)c(O)c(O)c2Cl)C1=O)c1nccs1` (stereo partly drawn) [Example 257, (3R)-3-(2-(2-chloro-5-fluoro-3,4-dihydroxyphenyl)-2-(2-oxo-3-(3-(thiazole-2-carboxamido)propyl)imidazolidine-1-carboxamido)acetamido)-7-fluoro-2-hydroxy-3,4-dihydro-2H-benzo[e][1,2]oxaborinine-8-carboxylic acid], the IC50 in assay [1] was under 10 µM. The MIC in the assay on P. aeruginosa ATCC 27853 was 2 to 4 µg/mL (≈ 2.77 to 5.53 µM); in the assay on P. aeruginosa CDC-0095, 2 to 4 µg/mL (≈ 2.77 to 5.53 µM); in the assay on A. baumannii 1258916, under 1 µg/mL; in the assay with A. baumannii CDC-0033 it was 2 to 4 µg/mL (≈ 2.77 to 5.53 µM); with A. baumannii CDC-0036, 2 to 4 µg/mL (≈ 2.77 to 5.53 µM); in [2] it was under 1 µg/mL. Also, the MIC is 2 to 4 µg/mL (≈ 2.77 to 5.53 µM) in the assay with P. aeruginosa CDC-0110, 16 to 32 µg/mL (≈ 22.1 to 44.3 µM) with N. gonorrhoeae MS11, over 64 µg/mL with N. gonorrhoeae WHO G and over 64 µg/mL in the assay with N. gonorrhoeae WHO Q.
Consider `O=C(NCCCN1CCN(C(=O)N[C@@H](C(=O)N[C@H]2Cc3ccc(F)c(C(=O)O)c3OB2O)c2cc(F)c(O)c(O)c2Cl)C1=O)Nc1cccc(O)c1` [Example 258, (R)-3-((R)-2-(2-chloro-5-fluoro-3,4-dihydroxyphenyl)-2-(3-(3-(3-(3-hydroxyphenyl)ureido)propyl)-2-oxoimidazolidine-1-carboxamido)acetamido)-7-fluoro-2-hydroxy-3,4-dihydro-2H-benzo[e][1,2]oxaborinine-8-carboxylic acid], for which the IC50 in assay [1] is under 10 µM. The MIC is 2 to 4 µg/mL (≈ 2.68 to 5.36 µM) with P. aeruginosa ATCC 27853; under 1 µg/mL with P. aeruginosa CDC-0095; under 1 µg/mL with A. baumannii 1258916; under 1 µg/mL with A. baumannii CDC-0033; under 1 µg/mL with A. baumannii CDC-0036; under 1 µg/mL in [2]. The MIC in the assay with P. aeruginosa CDC-0110 is under 1 µg/mL; with N. gonorrhoeae MS11 it was 16 to 32 µg/mL (≈ 21.4 to 42.8 µM); with N. gonorrhoeae WHO G it was 4 to 8 µg/mL (≈ 5.36 to 10.7 µM); with N. gonorrhoeae WHO Q, 16 to 32 µg/mL (≈ 21.4 to 42.8 µM).
